# ChEMBL document CHEMBL3046269, “The repelling effect of plant secondary metabolites on water voles, Arvicola amphibius” (2013)
# Active and inactive are the calls of the source. The calls are words filed in the database; no cut-off is given here.
# Experiments:
# Arvicola amphibius [1] = test: Herbivore repellent activity against adult Arvicola amphibius assessed as time required to enter the test box with apple pieces for first time by T-maze test (reference value: 438.43 +/-312.37 secs); assay type: functional
# Arvicola amphibius [2] = test: Herbivore repellent activity against adult Arvicola amphibius assessed as duration of stay within test box with apple pieces by T-maze test (reference value: 59.20 +/-31.75%); assay type: functional
# Arvicola amphibius [3] = test: Herbivore repellent activity against adult Arvicola amphibius assessed as time required to enter the test box with apple pieces for first time by T-maze test (reference value: 277.50 +/-166.07 secs); assay type: functional
# Arvicola amphibius [4] = test: Herbivore repellent activity against adult Arvicola amphibius assessed as duration of stay within test box with apple pieces by T-maze test (reference value: 59.19 +/-19.83%); assay type: functional
# Arvicola amphibius [5] = test: Herbivore repellent activity against adult Arvicola amphibius assessed as decrease in frequency of entry of test box with apple pieces by T-maze test; assay type: functional, organism-based
# Arvicola amphibius [6] = test: Herbivore repellent activity against adult Arvicola amphibius assessed as duration of stay within test box with apple pieces by T-maze test (reference value: 85.30 +/-13.79%); assay type: functional
# Arvicola amphibius [7] = test: Herbivore repellent activity against adult Arvicola amphibius assessed as time required to enter the test box with apple pieces for first time by T-maze test (reference value: 268.50 +/-417.85 secs); assay type: functional
# Arvicola amphibius [8] = test: Herbivore repellent activity against adult Arvicola amphibius assessed as duration of stay within test box with apple pieces by T-maze test (reference value: 56.72 +/-13.89%); assay type: functional
# Arvicola amphibius [9] = test: Herbivore repellent activity against adult Arvicola amphibius assessed as time required to enter the test box with apple pieces for first time by T-maze test (reference value: 380.25 +/-321.70 secs); assay type: functional
# Arvicola amphibius [10] = test: Herbivore repellent activity against adult Arvicola amphibius assessed as duration of stay within test box with apple pieces by T-maze test (reference value: 75.53 +/-16.57%); assay type: functional
# Arvicola amphibius [11] = test: Herbivore repellent activity against adult Arvicola amphibius assessed as time required to enter the test box with apple pieces for first time by T-maze test (reference value: 240.75 +/-184.07 secs); assay type: functional
smiles,measurement,setting,value
CCCS [1-PROPANETHIOL],Time,Arvicola amphibius [1],996.29 s
same,Activity,Arvicola amphibius [2],40.8%
CC(C)=CCC/C(C)=C/CO [GERANIOL],Time,Arvicola amphibius [3],326.38 s
same,Activity,Arvicola amphibius [4],40.8%
CCCCCCCCCC(C)=O [METHYL NONYL KETONE],inhibition,Arvicola amphibius [5],Active
same,Activity,Arvicola amphibius [6],14.7%
same,Time,Arvicola amphibius [7],888.38 s
CCCCCCCCC(=O)O [NONANOATE],Activity,Arvicola amphibius [8],43.28%
same,Time,Arvicola amphibius [9],507.75 s
CCCCC(=O)O [VALERIC ACID],Activity,Arvicola amphibius [10],24.47%
same,Time,Arvicola amphibius [11],769.13 s
